Experimental data reported in patent US6368529B1, “Lignocellulosic composite” (U.S. Borax Inc., priority 2000, dated 2002).

How the values were obtained:
[1] = test system: Trametes versicolor (MAD 697); experiment: Soil block decay test (AWPA E10-87), white rot; format: cell-based
Excerpt: (§1) Wood flakeboard was manufactured by conventional wood processing techniques, incorporating various borates at a range of concentrations, from 0.5 to 2.0% boric acid equivalent (BAE). Boric acid (H3BO3) equivalent is a commonly used convention for comparing various borates on an equivalent contained-boron basis. For each borate/loading combination, fifteen pounds of aspen (Populus tremuloides) furnish having an average particle size of about 2.5×0.75×0.025 inches, was blended with 0.75 pounds (5%) Rubinate 1840 (product of ICI), a polymeric methylene diphenyl diisocyanate adhesive, 0.11 pounds (0.75%) of Cascowax EW 403HS (product of Borden) and various concentrations of nine test borates. For each borate/loading combination, three 18″×18″ composite boards of 0.5 inch thickness were formed by pressing for 210 seconds at (180 seconds pressure, 30 seconds pressure release) at 204.5° C. (the pressure was kept in excess of 6000 psi during the pressure cycle). Each board was trimmed to 15″×15″ and cut to produce internal bond and analytical/soil block specimens for evaluation. Replicates were cut from the inner portion of the boards. Four internal bond, two leaching panels and twenty analytical/soil block specimens were cut from each board.
(§2) The panels to be leached (4.5″×4.5″) were edge sealed with an epoxy sealant and leached for two weeks. Leaching began with pressure treatment of the specimens with water for 30 minutes under vacuum and one hour under pressure. The specimens were removed from the pressure treatment chamber and the residual water was changed after two hours, then daily for the remainder of the leaching period. Afterward, they were trimmed to remove the sealed edges and cut into analytical/soil block test samples. Unleached and leached analytical/soil block samples for each board type were separately randomized. Fifteen were analyzed for borate content and ten were retained for the soil block decay test.
(§3) The soil block test was conducted in accordance with AWPA E10-87, with the exception that soil block dimensions were 1.0″×1.0″×0.5″. The fungi used were Gloeophyllum trabeum (ATCC 11539) for brown rot test and Trametes versicolor (MAD 697) for white rot test. An untreated composite control was run both unleached and leached. Solid southern yellow pine and birch were also run as unleashed controls against G. trabeum and T. versicolor, respectively as a test of fungal vigor.

[2] = test system: Gloeophyllum trabeum (ATCC 11539); experiment: Soil block decay test (AWPA E10-87), brown rot; format: cell-based
Excerpt: as §1, §2, §3

[3] = Borate content of composite after two weeks water leaching; format: physicochemical; details: leached two weeks
Procedure: as §2

[4] = leached two weeks, target loading 0.5% BAE (0.09% B)
[5] = leached two weeks, target loading 1.0% BAE (0.17% B)
[6] = leached two weeks, target loading 2.0% BAE (0.35% B)
[7] = unleached aspen flakeboard, target loading 0.5% BAE (0.09% B)
[8] = unleached aspen flakeboard, target loading 1.0% BAE (0.17% B)
[9] = unleached aspen flakeboard, target loading 2.0% BAE (0.35% B)
[10] = target loading 0.5% BAE (0.09% B)
[11] = target loading 1.0% BAE (0.17% B)
[12] = target loading 2.0% BAE (0.35% B)

Molecule	Mean % Wt. Loss T. versicolor [1, 4] [%]	Mean % Wt. Loss T. versicolor [1, 5] [%]	Mean % Wt. Loss T. versicolor [1, 6] [%]	Mean % Wt. Loss T. versicolor [1, 7] [%]	Mean % Wt. Loss T. versicolor [1, 8] [%]	Mean % Wt. Loss T. versicolor [1, 9] [%]	Mean % Wt. Loss G. trabeum [2, 4] [%]	Mean % Wt. Loss G. trabeum [2, 5] [%]	Mean % Wt. Loss G. trabeum [2, 6] [%]	Mean % Wt. Loss G. trabeum [2, 7] [%]	Mean % Wt. Loss G. trabeum [2, 8] [%]	Mean % Wt. Loss G. trabeum [2, 9] [%]	Assay % B [3, 10] [% B]	Assay % B [3, 11] [% B]	Assay % B [3, 12] [% B]
Gowerite	24.7	14.7	11.8	5.5	3.1	2.6	7.4	5.8	3.1	0.9	0.9	1.3	0.04	0.07	0.09
O=BOB=O [Boric Oxide (60m), Boric Oxide, reference compound]	50.4	35.8	23.2	7.6	3.6	3.7	8.0	6.0	3.3	1.6	0.7	1.1	0.02	0.03	0.07
Hydroboracite	27.1	21.0	4.5	2.8	3.6	2.2	9.4	4.2	1.8	1.1	1.0	2.2	0.05	0.06	0.13
Ulexite	22.3	11.0	7.2	13.9	3.4	3.0	6.6	1.0	1.3	1.4	0.8	1.8	0.03	0.08	0.11
O=BOB=O [Boric Oxide (4m), Boric Oxide, reference compound]	34.3	29.5	9.5	7.5	9.0	2.9	15.5	7.4	3.0	2.6	1.4	1.7	0.02	0.04	0.09
